The source made the active and inactive calls. The calls are words filed in the database; no cut-off is given here.
Columns and labels:
[1] = system: J774; assay: Antiproliferative activity against mouse J774 cells after 96 hrs by MTT assay; assay type: cell-based; conditions: j774, 96 h
[2] = system: WEHI; assay: Antiproliferative activity against mouse WEHI 164 cells after 96 hrs by MTT assay; assay type: functional, cell-based

Cc1cc[n+](C)cc1CCC(=O)[O-] [SULCATIN]
Activity [1]: Active
Activity [2]: Active

Source: ChEMBL document CHEMBL1154568, “Sulcatin, a novel antiproliferative N-methylpyridinium alkaloid from the ascidian Microcosmus vulgaris” (J Nat Prod, 2000)
